The target in assay [1] is T1, E. coli topoisomerase IV (Escherichia coli, UniProt P20083).
T1 construct: purchased Inspiralis
In words: biochemical. To be noted: E. coli topo IV, read-out: RA (residual activity of the enzyme). Here is the method: Inhibitory activities for compounds of the present invention were determined on E. coli and S. aureus DNA gyrase and topoisomerase IV in an assay from Inspiralis on streptavidin-coated 96-well microtiter plates from Thermo scientific Pierce. […] After washing off the unbound oligonucleotide, the enzyme test was performed. […] Reaction solutions were incubated at 37° C. for 30 min. After that, the TF buffer (50 mM NaOAc with pH 5.0, 50 mM NaCl and 50 mM MgCl2) was added to terminate the enzymatic reaction. After additional incubation for 30 min at rt, during which biotin-oligonucleotide-plasmid triplex was formed, the unbound plasmid was washed off using TF buffer and SybrGOLD in T10 buffer (10 mM Tris HCl with pH 8.0 and 1 mM EDTA) was added. […] Initial screening was done at 100 or 10 nM concentration of inhibitors against E. coli DNA gyrase or 1 μM or 100 nM concentration against S. aureus DNA gyrase and E. coli and S. aureus topo IV. […] GraphPad Prism 6.0 software was used to calculate the IC50 values. The result is given as the average value of three independent measurements. […] Chemoth.

The subject of assay [2] is S. aureus ATCC 43300 (MRSA). Put plainly: Microbroth dilution MIC (CLSI). It counts as cell-based. The following applies: Staphylococcus aureus; S. aureus ATCC 43300 (MRSA); read-out: MIC. Here is the method: (§1) The chemical entities described in the present invention were assessed for their antimicrobial activity using a microbroth dilution assay as recommended by the CLSI (Methods for Dilution Antimicrobial Susceptibility Tests for Bacteria That Grow Aerobically, and Methods for Antimicrobial Susceptibility Testing of Anaerobic Bacteria, Clinical and Laboratory Standards Institute, Document M07-A8, and M11-A8, Wayne, PA 19087, USA, 2012.). Compounds were dissolved by using 100% DMSO. Serial two-fold dilutions of each compound were made by using 100% DMSO as the diluent.
(§2) A library of Gram-negative and Gram-positive microbes and their drug- and multidrug-resistant variants were employed as test organisms. The MIC (minimum inhibitory concentration) was determined as the lowest concentration of an individual drug that lead to no visible growth.

Assay [3] has as its system S. aureus ATCC 29213. Put plainly: Microbroth dilution MIC (CLSI). To be noted: Staphylococcus aureus, ATCC29213; S. aureus ATCC 29213; read-out: MIC. The assay is classed as cell-based. Here is the method: as §1, §2
Assay [4] deals with P. aeruginosa ATCC 27853. Put plainly: Microbroth dilution MIC (CLSI). The following applies: Pseudomonas aeruginosa, ATCC27853; P. aeruginosa ATCC 27853; read-out: MIC. It counts as cell-based. Here is the method: as §1, §2
(In general: Dilution methods test growth across graded concentrations, often in twofold steps.)

Assay [5] relates to E. faecalis ATCC 29212. In words: Microbroth dilution MIC (CLSI). The assay is classed as cell-based. To be noted: Enterococcus faecalis, ATCC29212; E. faecalis ATCC 29212; read-out: MIC. Here is the method:
as §1, §2

Assay [6] has as its system E. coli ATCC 25922. Put plainly: Microbroth dilution MIC (CLSI). The assay is classed as cell-based. The following applies: Escherichia coli, ATCC25922; E. coli ATCC 25922; read-out: MIC. Here is the method:
as §1, §2

Assay [7] concerns S. aureus ATCC 700699 (VISA). Put plainly: Microbroth dilution MIC (CLSI). It counts as cell-based. The following applies: Staphylococcus aureus; S. aureus ATCC 700699 (VISA); read-out: MIC. Here is the method: as §1, §2
In assay [8] the test system is E. faecium ATCC 700221. In words: Microbroth dilution MIC (CLSI). The assay is classed as cell-based. The following applies: Enterococcus faecium, ATCC700221; E. faecium ATCC 700221; read-out: MIC. Here is the method: as §1, §2
Assay [9] deals with K. pneumoniae ATCC 10031. In words: Microbroth dilution MIC (CLSI). It counts as cell-based. To be noted: Klebsiella pneumoniae, ATCC10031; K. pneumoniae ATCC 10031; read-out: MIC. Here is the method:
as §1, §2

Assay [10] has as its system E. spp. cloacae ATCC 13047. Put plainly: Microbroth dilution MIC (CLSI). It counts as cell-based. The following applies: Enterobacter cloacae, ATCC13047; E. spp. cloacae ATCC 13047; read-out: MIC. Here is the method: as §1, §2
Assay [11] relates to A. baumannii ATCC 17978. Put plainly: Microbroth dilution MIC (CLSI). It counts as cell-based. To be noted: Acinetobacter baumannii, ATCC17978; A. baumannii ATCC 17978; read-out: MIC. Here is the method:
as §1, §2

Assay [12] deals with T2, E. coli DNA gyrase (Escherichia coli, UniProt P0AES6).
T2 construct: purchased Inspiralis
Put plainly: biochemical. To be noted: E. coli DNA gyrase; read-out: IC50. Here is the method: Inhibitory activities for compounds of the present invention were determined on E. coli and S. aureus DNA gyrase and topoisomerase IV in an assay from Inspiralis on streptavidin-coated 96-well microtiter plates from Thermo scientific Pierce. […] After washing off the unbound oligonucleotide, the enzyme test was performed. […] Reaction solutions were incubated at 37° C. for 30 min. After that, the TF buffer (50 mM NaOAc with pH 5.0, 50 mM NaCl and 50 mM MgCl2) was added to terminate the enzymatic reaction. After additional incubation for 30 min at rt, during which biotin-oligonucleotide-plasmid triplex was formed, the unbound plasmid was washed off using TF buffer and SybrGOLD in T10 buffer (10 mM Tris HCl with pH 8.0 and 1 mM EDTA) was added. […] GraphPad Prism 6.0 software was used to calculate the IC50 values. The result is given as the average value of three independent measurements. […] Chemoth.

The text below walks through data of US20250002455A1, “NEW N-PHENYLPYRROLAMIDE INHIBITORS OF DNA GYRASE AND TOPOISOMERASE IV WITH ANTIBACTERIAL ACTIVITY” (priority 2020, published 2025).

pIC50: −log10 of the molar value. In brackets after ≈: the same amount, converted by molar mass.

T1 sequence (P0AFI2 whole entry): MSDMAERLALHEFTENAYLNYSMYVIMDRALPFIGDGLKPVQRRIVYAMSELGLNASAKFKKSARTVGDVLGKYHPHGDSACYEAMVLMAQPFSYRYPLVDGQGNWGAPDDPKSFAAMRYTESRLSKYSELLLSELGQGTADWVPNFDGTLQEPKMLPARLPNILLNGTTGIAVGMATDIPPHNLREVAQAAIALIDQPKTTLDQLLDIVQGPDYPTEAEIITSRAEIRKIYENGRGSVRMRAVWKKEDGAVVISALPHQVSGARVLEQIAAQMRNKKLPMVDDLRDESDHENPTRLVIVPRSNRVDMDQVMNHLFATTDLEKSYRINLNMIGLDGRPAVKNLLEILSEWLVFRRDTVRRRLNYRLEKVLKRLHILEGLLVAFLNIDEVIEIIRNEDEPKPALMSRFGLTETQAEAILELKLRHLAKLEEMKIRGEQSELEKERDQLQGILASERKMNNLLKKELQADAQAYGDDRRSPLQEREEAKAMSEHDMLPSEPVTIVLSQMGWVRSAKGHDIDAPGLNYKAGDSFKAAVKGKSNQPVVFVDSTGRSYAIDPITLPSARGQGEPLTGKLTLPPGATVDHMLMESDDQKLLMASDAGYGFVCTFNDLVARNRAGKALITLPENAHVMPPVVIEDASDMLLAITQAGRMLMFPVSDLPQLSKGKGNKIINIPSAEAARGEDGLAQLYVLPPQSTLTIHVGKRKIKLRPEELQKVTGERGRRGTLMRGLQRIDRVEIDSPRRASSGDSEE
T1 sequence (P20083 whole entry): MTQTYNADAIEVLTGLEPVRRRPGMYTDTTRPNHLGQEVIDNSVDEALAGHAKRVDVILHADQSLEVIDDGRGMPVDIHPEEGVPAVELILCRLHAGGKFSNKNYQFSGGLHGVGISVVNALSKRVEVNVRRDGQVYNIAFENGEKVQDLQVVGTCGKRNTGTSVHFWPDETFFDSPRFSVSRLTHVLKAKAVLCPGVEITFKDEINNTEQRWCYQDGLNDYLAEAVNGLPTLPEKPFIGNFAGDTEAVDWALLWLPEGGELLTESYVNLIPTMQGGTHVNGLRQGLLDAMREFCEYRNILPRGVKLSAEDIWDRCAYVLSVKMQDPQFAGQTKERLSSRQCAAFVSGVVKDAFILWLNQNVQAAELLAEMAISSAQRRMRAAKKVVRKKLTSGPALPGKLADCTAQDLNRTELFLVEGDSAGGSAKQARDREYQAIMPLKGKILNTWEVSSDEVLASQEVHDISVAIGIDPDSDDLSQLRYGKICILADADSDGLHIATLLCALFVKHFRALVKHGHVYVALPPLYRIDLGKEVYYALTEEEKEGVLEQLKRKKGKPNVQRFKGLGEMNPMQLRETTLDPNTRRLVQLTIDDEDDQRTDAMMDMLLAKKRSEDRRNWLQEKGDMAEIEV

As usually defined, the MIC is the lowest concentration found to suppress growth. The term pIC50 denotes the negative decadic logarithm of the IC50, by convention in mol/L. On to `Cc1[nH]c(C(=O)Nc2ccc(-c3noc(=O)[nH]3)cc2N2CCC(N)CC2)c(Cl)c1Cl.Cl` [Example 1, 1-(2-(3,4-Dichloro-5-methyl-1H-pyrrole-2-carboxamido)-5-(5-oxo-4,5-dihydro-1,2,4-oxadiazol-3-yl)phenyl)piperidin-4-aminium chloride], for which the remaining activity at 0.1 µM in assay [1] (0.1 μM compound) is 105%. Further, the remaining activity at 1 µM in [1] (1 μM compound) is 33%. The minimal inhibitory concentration (MIC) in [2] was 32 µg/mL; in assay [3] it was 64 µg/mL; in assay [4], no less than 64 µg/mL; in assay [5], 32 µg/mL; in assay [6] it was no less than 64 µg/mL; in [7], 16 µg/mL. Moreover, the MIC in assay [8] was 32 µg/mL; in assay [9] it was 64 µg/mL; in assay [10] it was no less than 64 µg/mL; in assay [11] it was no less than 64 µg/mL. In assay [12], the pIC50 was 9.60.
Consider `Cc1[nH]c(C(=O)Nc2ccc(-c3n[nH]c(=O)o3)cc2OCc2ccccc2)c(Cl)c1Cl` [Example 11, N-(2-(Benzyloxy)-4-(5-oxo-4,5-dihydro-1,3,4-oxadiazol-2-yl)phenyl)-3,4-dichloro-5-methyl-1H-pyrrole-2-carboxamide], for which, in assay [1] (10 μM compound), the remaining activity at 10 µM turned out to be 106%. For the same molecule, the MIC in assay [2], in [3], in assay [4], in assay [5], in assay [6] and in assay [7] was no less than 32 µg/mL each time. Further, the minimum inhibitory concentration (MIC) in assay [8], in assay [9], in assay [10] and in assay [11] was no less than 32 µg/mL throughout. In [12], the pIC50 was 6.05.
On to `Cc1[nH]c(C(=O)Nc2ccc(C(=O)O)cc2N2CCN(c3ccccc3)CC2)c(Cl)c1Cl` [Example 16, 4-(3,4-Dichloro-5-methyl-1H-pyrrole-2-carboxamido)-3-(4-phenylpiperazin-1-yl)benzoic acid], for which the minimal inhibitory concentration (MIC) in [2], in assay [3], in assay [4], in assay [5], in [6] and in assay [7] was greater than 64 µg/mL each time. For the same molecule, the MIC in assay [8], in [9], in assay [10] and in [11] was greater than 64 µg/mL each time. Further, the negative-log IC50 (pIC50) in assay [12] is 6.70.
`Cc1[nH]c(C(=O)Nc2ccc(-c3n[nH]c(=O)o3)cc2NC2CCNCC2)c(Cl)c1Cl.Cl` [Example 19, 4-((2-(3,4-Dichloro-5-methyl-1H-pyrrole-2-carboxamido)-5-(5-oxo-4,5-dihydro-1,3,4-oxadiazol-2-yl)phenyl)amino)piperidin-1-ium chloride]: the MIC in [2], in assay [3], in [4], in assay [5], in assay [6] and in [7] was greater than 64 µg/mL each time. Moreover, the MIC is greater than 64 µg/mL in assay [8], 2 µg/mL in [9], greater than 64 µg/mL in assay [10] and greater than 64 µg/mL in [11]. Besides, the pIC50 in assay [12] is 8.36.
Take `Cc1[nH]c(C(=O)Nc2ccc(-n3nn[nH]c3=O)cc2N2CCN(c3ccccc3)CC2)c(Cl)c1Cl` [Example 24, 3,4-Dichloro-5-methyl-N-(4-(5-oxo-4,5-dihydro-1H-tetrazol-1-yl)-2-(4-phenylpiperazin-1-yl)phenyl)-1H-pyrrole-2-carboxamide]: the MIC in [2] was no less than 32 µg/mL; in assay [3] it was no less than 32 µg/mL; in assay [4], no less than 32 µg/mL; in [5], 0.5 µg/mL (≈ 0.974 µM); in assay [6] it was no less than 32 µg/mL; in [7], 0.5 µg/mL (≈ 0.974 µM). Besides, the MIC in assay [8] was 0.5 µg/mL (≈ 0.974 µM); in assay [9], no less than 32 µg/mL; in [10], no less than 32 µg/mL; in [11] it was no less than 32 µg/mL. For the same molecule, the pIC50 in assay [12] is 8.11.
With `Cc1[nH]c(C(=O)Nc2ccc(-c3n[nH]c(=O)o3)cc2OC2CCNC2)c(Cl)c1Cl.Cl` (stereo not shown) [Example 26, 3-(2-(3,4-Dichloro-5-methyl-1H-pyrrole-2-carboxamido)-5-(5-oxo-4,5-dihydro-1,3,4-oxadiazol-2-yl)phenoxy)pyrrolidin-1-ium chloride], the MIC in assay [2], in assay [3], in assay [4], in assay [5], in assay [6] and in assay [7] was no less than 32 µg/mL in each case. In addition, the MIC in assay [8], in [9], in assay [10] and in [11] was no less than 32 µg/mL each time. Also, the pIC50 in [12] was 8.45.
With `Cc1[nH]c(C(=O)Nc2ccc(-c3n[nH]c(=O)o3)cc2OC2CCNCC2)c(Cl)c1Cl.Cl` [Example 27, 4-(2-(3,4-Dichloro-5-methyl-1H-pyrrole-2-carboxamido)-5-(5-oxo-4,5-dihydro-1,3,4-oxadiazol-2-yl)phenoxy)piperidin-1-ium chloride], the MIC in assay [2] is 8 µg/mL; in assay [3], 16 µg/mL; in assay [4], no less than 32 µg/mL; in [5], greater than 64 µg/mL; in assay [6] it was no less than 32 µg/mL; in [7] it was no less than 64 µg/mL. Further, the MIC is 8 µg/mL in assay [8], 0.125 µg/mL in [9], no less than 32 µg/mL in assay [10] and no less than 32 µg/mL in [11]. Also, the pIC50 in assay [12] is 8.65.
With `Cc1[nH]c(C(=O)Nc2ccc(-c3n[nH]c(=O)o3)cc2OCC2CCCNC2)c(Cl)c1Cl.Cl` (stereo not shown) [Example 28, 3-((2-(3,4-Dichloro-5-methyl-1H-pyrrole-2-carboxamido)-5-(5-oxo-4,5-dihydro-1,3,4-oxadiazol-2-yl)phenoxy)methyl)piperidin-1-ium chloride], the MIC in [2], in assay [3], in [4], in [5], in assay [6] and in assay [7] was greater than 64 µg/mL in each case. Moreover, the minimal inhibitory concentration (MIC) in assay [8] is greater than 64 µg/mL; in assay [9] it was 0.5 µg/mL; in [10], greater than 64 µg/mL; in [11], greater than 64 µg/mL. Also, the pIC50 in [12] was 9.12.
